From US8063220B2, “Sulfonyl-quinoline derivatives” (Richter Gedeon Nyrt., priority 2007, dated 2011)

Key:
rat mGluR5 = biological target: T1, rat mGluR5 (Rattus norvegicus, UniProt P31424); experiment: MGluR5 receptor binding test ([3H]-M-MPEP displacement, rat cerebro-cortical membrane preparation); conditions: rat mGluR5, [3H]-M-MPEP 2 nM; read-out: mGlu5 Ki
T1 construct: Rat cerebro-cortical membrane preparation was used; from tissue; host or cells: rat cerebral cortex (membrane preparation)
Method: Rat cerebro-cortical membrane preparation was used to determine the binding characteristics of reference compounds and novel compounds to the rat mGluR5. The A18 cell line expressing hmGluR5a (purchased from Euroscreen) was used to determine binding characteristics of the chemical compounds to the human mGluR5a receptor. [3H]-M-MPEP (2 nM) was used as radioligand. The nonspecific binding was determined in the presence of 10 μM M-MPEP.

rat mGluR1 = biological target: T2, rat mGluR1 (Rattus norvegicus, UniProt P23385); experiment: MGluR1 receptor binding test ([3H]R214127 displacement, rat cerebellar membrane preparation); conditions: rat mGluR1, [3H]R214127 3 nM; read-out: mGlu1 Ki
T2 construct: rat cerebellar membrane preparation was used; from tissue; host or cells: rat cerebellum (membrane preparation)
Procedure, shortened: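 Rat cerebellar membranes with 3 nM [3H]R214127; nonspecific binding defined by 1 μM R214127. IC50 from displacement curves by nonlinear regression, converted to Ki by Cheng–Prusoff.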

T2 sequence (P23385 19-1199): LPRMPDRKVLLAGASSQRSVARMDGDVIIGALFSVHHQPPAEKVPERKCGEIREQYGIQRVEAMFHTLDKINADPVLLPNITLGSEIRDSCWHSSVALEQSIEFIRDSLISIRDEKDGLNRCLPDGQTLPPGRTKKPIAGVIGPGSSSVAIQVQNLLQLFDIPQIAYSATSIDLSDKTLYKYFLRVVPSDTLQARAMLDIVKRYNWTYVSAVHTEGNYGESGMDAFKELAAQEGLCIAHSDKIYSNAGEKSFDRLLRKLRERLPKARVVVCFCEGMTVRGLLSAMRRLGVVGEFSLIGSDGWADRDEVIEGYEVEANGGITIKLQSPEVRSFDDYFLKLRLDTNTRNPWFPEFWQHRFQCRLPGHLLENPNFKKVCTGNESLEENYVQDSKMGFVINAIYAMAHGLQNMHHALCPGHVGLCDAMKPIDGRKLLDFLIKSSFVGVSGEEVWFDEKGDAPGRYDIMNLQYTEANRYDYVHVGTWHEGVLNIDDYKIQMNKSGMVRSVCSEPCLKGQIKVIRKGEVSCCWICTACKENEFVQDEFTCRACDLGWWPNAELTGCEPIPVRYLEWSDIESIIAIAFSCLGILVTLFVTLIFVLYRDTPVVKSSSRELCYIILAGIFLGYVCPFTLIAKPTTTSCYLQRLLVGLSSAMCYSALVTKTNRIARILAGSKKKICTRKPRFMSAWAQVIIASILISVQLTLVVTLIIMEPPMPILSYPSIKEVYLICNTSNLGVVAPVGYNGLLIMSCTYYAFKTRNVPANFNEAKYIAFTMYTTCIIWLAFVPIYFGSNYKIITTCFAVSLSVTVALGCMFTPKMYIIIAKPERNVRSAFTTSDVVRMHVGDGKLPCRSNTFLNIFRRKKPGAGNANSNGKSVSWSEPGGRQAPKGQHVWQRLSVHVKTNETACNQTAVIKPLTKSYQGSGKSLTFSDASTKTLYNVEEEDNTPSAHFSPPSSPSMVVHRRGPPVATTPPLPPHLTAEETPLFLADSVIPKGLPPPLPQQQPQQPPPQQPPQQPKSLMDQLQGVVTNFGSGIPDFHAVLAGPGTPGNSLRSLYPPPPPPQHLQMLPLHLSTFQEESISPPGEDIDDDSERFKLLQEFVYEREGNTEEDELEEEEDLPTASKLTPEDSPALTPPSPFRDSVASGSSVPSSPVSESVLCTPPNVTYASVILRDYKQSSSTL
T1 sequence (P31424 21-1203): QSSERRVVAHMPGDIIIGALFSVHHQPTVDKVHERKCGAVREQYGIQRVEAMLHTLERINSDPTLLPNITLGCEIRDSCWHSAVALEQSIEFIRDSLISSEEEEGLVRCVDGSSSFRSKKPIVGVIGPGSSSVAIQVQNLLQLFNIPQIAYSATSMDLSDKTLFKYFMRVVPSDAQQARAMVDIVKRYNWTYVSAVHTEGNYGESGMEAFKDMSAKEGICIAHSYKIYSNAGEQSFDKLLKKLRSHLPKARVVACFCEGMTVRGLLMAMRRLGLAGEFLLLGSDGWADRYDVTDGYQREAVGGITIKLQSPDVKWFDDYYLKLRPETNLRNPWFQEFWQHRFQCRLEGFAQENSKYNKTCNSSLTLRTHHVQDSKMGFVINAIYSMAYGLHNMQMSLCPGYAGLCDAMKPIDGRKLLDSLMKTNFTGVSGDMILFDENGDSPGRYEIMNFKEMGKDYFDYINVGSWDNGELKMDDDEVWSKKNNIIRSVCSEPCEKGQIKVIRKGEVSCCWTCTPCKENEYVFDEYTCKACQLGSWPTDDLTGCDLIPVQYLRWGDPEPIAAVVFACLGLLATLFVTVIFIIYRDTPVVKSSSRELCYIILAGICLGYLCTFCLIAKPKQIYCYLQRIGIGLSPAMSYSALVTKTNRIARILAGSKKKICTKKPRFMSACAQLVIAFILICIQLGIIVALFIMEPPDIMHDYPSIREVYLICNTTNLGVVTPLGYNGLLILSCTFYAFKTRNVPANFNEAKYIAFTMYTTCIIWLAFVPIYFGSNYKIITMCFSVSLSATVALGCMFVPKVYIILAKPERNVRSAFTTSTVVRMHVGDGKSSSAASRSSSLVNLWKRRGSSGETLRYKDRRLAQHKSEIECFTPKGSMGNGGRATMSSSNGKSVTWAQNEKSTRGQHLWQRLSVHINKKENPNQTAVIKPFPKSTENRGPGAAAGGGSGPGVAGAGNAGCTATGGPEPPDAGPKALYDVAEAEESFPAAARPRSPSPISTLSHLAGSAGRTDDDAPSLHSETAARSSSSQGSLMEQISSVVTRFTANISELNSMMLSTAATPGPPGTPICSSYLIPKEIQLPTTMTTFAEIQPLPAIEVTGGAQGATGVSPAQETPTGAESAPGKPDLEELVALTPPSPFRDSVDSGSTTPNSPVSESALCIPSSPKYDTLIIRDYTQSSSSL

SMILES | Ki (rat mGluR5) [nM] | Ki (rat mGluR1) [nM]
COc1ccc(-c2c(S(=O)(=O)c3ccc(OC)c(OC)c3)cnc3ccc(F)cc23)cc1 [Compound 71] | > 500 | > 500
N#Cc1cc(F)cc(S(=O)(=O)c2cnc3cc(Cl)ccc3c2-c2cccc(Cl)c2)c1 [Compound 250] | < 200 | 200 to 500
Cc1ccc(S(=O)(=O)c2cnc3ccc(F)cc3c2-c2cccc(Cl)c2)cc1F [Compound 127] | < 200 | > 500
O=S(=O)(c1ccc(F)cc1)c1cnc2ccc(F)cc2c1-c1ccc(Cl)cc1 [Compound 25] | 200 to 500 | > 500
N#Cc1cc(S(=O)(=O)c2cnc3cc(F)ccc3c2-c2ccc(Cl)cc2)ccc1F [Compound 274] | < 200 | > 500
COc1ccc(-c2c(S(=O)(=O)c3ccc(F)cc3)cnc3c(F)cccc23)cc1 [Compound 52] | < 200 | > 500
N#Cc1ccc2ncc(S(=O)(=O)c3cc(Cl)cc(Cl)c3)c(-c3ccccc3F)c2c1 [Compound 200] | > 500 | > 500
Cc1ccc(S(=O)(=O)c2cnc3ccc(F)cc3c2-c2cccc(F)c2)cc1C [Compound 146] | < 200 | > 500
COc1cccc(-c2c(S(=O)(=O)c3cc(Cl)cc(Cl)c3)cnc3ccc(F)cc23)c1 [Compound 126] | < 200 | > 500
COc1cccc(S(=O)(=O)c2cnc3ccc(F)cc3c2-c2ccc(F)cc2)c1 [Compound 73] | < 200 | > 500
Cc1ccc(S(=O)(=O)c2cnc3ccccc3c2-c2ccc(Cl)cc2)cc1 [Compound 1, 4-(4-chloro-phenyl)-3-(4-methyl-benzenesulfonyl)-quinoline] | < 200 | 200 to 500
O=S(=O)(c1ccc(F)c(Cl)c1)c1cnc2cc(Cl)ccc2c1-c1ccc(F)cc1 [Compound 183] | < 200 | > 500
O=S(=O)(c1ccc(F)cc1)c1cnc2ccc(Cl)cc2c1-c1cccc(Cl)c1 [Compound 3] | > 500 | > 500
N#Cc1cc(F)cc(S(=O)(=O)c2cnc3cc(F)ccc3c2-c2ccc(F)cc2)c1 [Compound 218] | < 200 | > 500
COc1ccc(-c2c(S(=O)(=O)c3cccc(F)c3)cnc3cc(F)ccc23)cc1 [Compound 42] | 200 to 500 | > 500
COc1ccc(S(=O)(=O)c2cnc3cc(F)ccc3c2-c2cccc(Cl)c2)cc1Cl [Compound 47] | < 200 | 200 to 500
N#Cc1cccc(S(=O)(=O)c2cnc3ccccc3c2-c2cccc(F)c2)c1 [Compound 214] | < 200 | > 500
N#Cc1cc(F)cc(S(=O)(=O)c2cnc3cc(F)ccc3c2-c2cccc(F)c2)c1 [Compound 228] | < 200 | > 500
O=S(=O)(c1cc(Cl)cc(Cl)c1)c1cnc2ccc(F)cc2c1-c1ccc(Cl)cc1 [Compound 161] | < 200 | > 500
O=S(=O)(c1ccc(F)cc1)c1cnc2cc(Cl)ccc2c1-c1ccc(Cl)cc1 [Compound 172] | < 200 | > 500
Cc1ccc(S(=O)(=O)c2cnc3ccc(F)cc3c2-c2cccc(Cl)c2)cc1Cl [Compound 138] | < 200 | > 500

SMILES | Ki (rat mGluR5) [nM] | Ki (rat mGluR1) [nM]
O=S(=O)(c1ccc(Cl)cc1)c1cnc2c(Cl)ccc(Cl)c2c1-c1cccc(Cl)c1 [Compound 185] | > 500 | > 500
O=S(=O)(c1cccc(F)c1)c1cnc2c(F)cccc2c1-c1ccc(F)cc1 [Compound 63] | < 200 | 200 to 500
N#Cc1cc(F)cc(S(=O)(=O)c2cnc3ccccc3c2-c2ccc(F)cc2)c1 [Compound 271] | < 200 | > 500
COc1ccc(-c2c(S(=O)(=O)c3ccc(OC)cc3)cnc3c(F)cccc23)cc1 [Compound 56] | < 200 | > 500
COc1cccc(-c2c(S(=O)(=O)c3ccc(F)c(F)c3)cnc3cc(F)ccc23)c1 [Compound 100] | < 200 | > 500
N#Cc1cccc(S(=O)(=O)c2cnc3cc(F)ccc3c2-c2cc(F)cc(F)c2)c1 [Compound 245] | < 200 | 200 to 500
O=S(=O)(c1ccc(F)c(Cl)c1)c1cnc2cc(F)c(Cl)cc2c1-c1ccccc1F [Compound 194] | > 500 | > 500
O=S(=O)(c1ccc(F)c(F)c1)c1cnc2c(F)cccc2c1-c1ccc(F)cc1 [Compound 123] | < 200 | < 200
O=S(=O)(c1ccc(Cl)cc1)c1cnc2cc(Cl)ccc2c1-c1ccc(F)cc1 [Compound 4, 7-chloro-3-(4-chloro-benzenesulfonyl)-4-(4-fluoro-phenyl)-quinoline] | < 200 | 200 to 500
N#Cc1cccc(S(=O)(=O)c2cnc3cc(F)ccc3c2-c2cccc(F)c2)c1 [Compound 38] | < 200 | 200 to 500
N#Cc1cc(S(=O)(=O)c2cnc3ccccc3c2-c2cccc(F)c2)ccc1F [Compound 206] | < 200 | > 500
O=S(=O)(c1ccc(F)c(F)c1)c1cnc2c(F)cccc2c1-c1cc(F)cc(F)c1 [Compound 236] | < 200 | 200 to 500
N#Cc1cc(S(=O)(=O)c2cnc3cc(Cl)ccc3c2-c2ccc(Cl)cc2)ccc1F [Compound 277] | < 200 | 200 to 500
COc1ccc(S(=O)(=O)c2cnc3ccc(F)cc3c2-c2ccc(Cl)cc2)cc1Cl [Compound 78] | < 200 | > 500
COc1ccc(-c2c(S(=O)(=O)c3cccc(C#N)c3)cnc3cc(F)ccc23)cc1 [Compound 92] | < 200 | 200 to 500
COc1ccc(-c2c(S(=O)(=O)c3cc(F)cc(F)c3)cnc3cc(F)ccc23)cc1 [Compound 89] | < 200 | > 500
COc1cccc(S(=O)(=O)c2cnc3cc(F)ccc3c2-c2ccc(F)cc2)c1 [Compound 44] | < 200 | > 500
COc1ccc(S(=O)(=O)c2cnc3cc(F)ccc3c2-c2cccc(F)c2)cc1Cl [Compound 48] | < 200 | > 500
N#Cc1cc(S(=O)(=O)c2cnc3ccccc3c2-c2ccc(F)cc2)ccc1F [Compound 211] | < 200 | > 500
O=S(=O)(c1ccc(Cl)cc1)c1cnc2ccc(F)cc2c1-c1ccc(F)cc1 [Compound 31] | > 500 | > 500
N#Cc1cccc(S(=O)(=O)c2cnc3c(F)cccc3c2-c2ccc(Cl)cc2)c1 [Compound 225] | < 200 | > 500

SMILES | Ki (rat mGluR5) [nM] | Ki (rat mGluR1) [nM]
O=S(=O)(c1cccc(F)c1)c1cnc2c(F)cccc2c1-c1ccc(Cl)cc1 [Compound 59] | < 200 | 200 to 500
COc1ccc(S(=O)(=O)c2cnc3cc(F)ccc3c2-c2ccc(F)cc2)cc1Cl [Compound 49] | < 200 | > 500
COc1cccc(-c2c(S(=O)(=O)c3ccc(F)c(F)c3)cnc3ccc(F)cc23)c1 [Compound 151] | 200 to 500 | > 500
O=S(=O)(c1ccc(F)cc1)c1cnc2cc(Cl)ccc2c1-c1cccc(F)c1 [Compound 167] | < 200 | > 500
COc1cccc(-c2c(S(=O)(=O)c3ccc(F)c(Cl)c3)cnc3ccc(F)cc23)c1 [Compound 154] | < 200 | > 500
O=S(=O)(c1ccc(F)c(Cl)c1)c1cnc2c(F)c(Cl)ccc2c1-c1ccc(Cl)cc1 [Compound 197] | < 200 | > 500
COc1ccc(-c2c(S(=O)(=O)c3ccc(C)c(F)c3)cnc3ccc(F)cc23)cc1 [Compound 129] | < 200 | > 500
N#Cc1cc(F)cc(S(=O)(=O)c2cnc3c(N)cccc3c2-c2cccc(F)c2)c1 [Compound 279] | < 200 | > 500
O=S(=O)(c1ccc(F)c(F)c1)c1cnc2cc(F)ccc2c1-c1ccc(Cl)cc1 [Compound 247] | < 200 | > 500
N#Cc1cc(F)cc(S(=O)(=O)c2cnc3ccccc3c2-c2ccc(F)c(F)c2)c1 [Compound 266] | < 200 | > 500
COc1ccc(-c2c(S(=O)(=O)c3ccc(OC)cc3)cnc3cc(F)ccc23)cc1 [Compound 13] | < 200 | > 500
COc1cccc(S(=O)(=O)c2cnc3cc(F)ccc3c2-c2cccc(F)c2)c1 [Compound 95] | 200 to 500 | > 500
COc1ccc(-c2c(S(=O)(=O)c3ccc(C)c(C)c3)cnc3ccc(F)cc23)cc1 [Compound 147] | < 200 | > 500
COc1ccc(S(=O)(=O)c2cnc3c(F)cccc3c2-c2cccc(Cl)c2)cc1 [Compound 53, 4-(3-chloro-phenyl)-8-fluoro-3-(4-methoxy-benzenesulfonyl)-quinoline] | < 200 | > 500
COc1ccc(S(=O)(=O)c2cnc3ccc(F)cc3c2-c2ccc(F)cc2)cc1Cl [Compound 165] | > 500 | > 500
O=S(=O)(c1cc(F)cc(F)c1)c1cnc2cc(F)c(Cl)cc2c1-c1ccc(Cl)cc1 [Compound 198] | > 500 | > 500
O=S(=O)(c1cc(F)cc(F)c1)c1cnc2c(F)cccc2c1-c1cccc(F)c1 [Compound 51] | < 200 | > 500
O=S(=O)(c1ccc(F)c(Cl)c1)c1cnc2cc(Cl)ccc2c1-c1cccc(F)c1 [Compound 171] | < 200 | > 500
O=S(=O)(c1ccc(F)cc1)c1cnc2ccc(F)cc2c1-c1ccc(F)cc1 [Compound 28] | > 500 | > 500
COc1ccc(-c2c(S(=O)(=O)c3ccc(F)cc3)cnc3cc(F)ccc23)cc1 [Compound 10] | 200 to 500 | > 500
